Laboratory results: PMC2746281 (PLoS ONE, 2009)

Assays:
[1] = system: Salmonella typhimurium and Escherichia coli; conditions: cited from earlier work
[2] = system: human cord-blood-derived mast cells (CBMC); test: TNF-α release by IgE-anti IgE-activated CBMC (ELISA); format: cell-based; conditions: Mast cell, 4 hours of stimulation
Experimental: (§1) (see Supporting Information; Methods S1). […] Assays of β-hexosaminidase release and TNF-α release were made by stimulating the CBMC with 1 µg/ml of goat anti-human IgE (Vector Laboratories) for 30 minutes or 4 hours, respectively. β-hexosaminidase was measured in the supernatant and in the sonicated cell pellets and its net release calculated. For TNF-α determination, the cell-free supernatants were collected by centrifugation and frozen at −80°C until determination of mediator content by the use of a specific ELISA kit according to manufacturer's instructions (Coulter, France). All assays were performed in duplicate and counts were repeated twice for each well.
(§2) Human CBMC were produced by long-term culture of CD34+ progenitors purified from normal cord-blood. […] At the beginning of the culture, rhIL-3 (1 ng/ml) (R&D Systems Europe, France) was also added to induce maximal expansion of haematopoietic progenitors. After 3 days the IL-3 was removed and 4 days later cells were transferred to a complete serum-free medium containing rmSCF at 100 ng/ml, which was renewed every 7 days thereafter. After 8 weeks in culture ≥99% of the cells were identified as being mast cells by May-Grünwald-Giemsa staining of cytocentrifuged samples.

[3] = system: human cord-blood-derived mast cells (CBMC); test: FcεRI-mediated degranulation (β-hexosaminidase release) of IgE-anti IgE activated CBMC; format: cell-based; conditions: Mast cell, 0.5 h, 30 minutes of stimulation
Experimental: as §1, §2

Cc1ccc(NC(=O)c2ccc(CN3CCN(C)CC3)cc2)cc1Nc1nccc(-c2cccnc2)n1 [imatinib, reference compound]
bacterial reverse mutation test [1]: positive | inhibition at 0.1 µM ([2]; 0.1 µM): 4% | inhibition at 1 µM ([2]; 1.0 µM): 24% | inhibition at 10 µM ([2]; 10 µM): 45% | inhibition at 0.1 µM ([3]; 0.1 µM): 2% | inhibition at 1 µM ([3]; 1.0 µM): 8% | inhibition at 10 µM ([3]; 10 µM): 19%
